Test results from a compilation of properties of binary mixtures (doi:10.1016/j.molliq.2016.06.018).

Assay: xn = mol fraction of the nth substance listed
Settings: 100 kPa

CCCC[n+]1ccn(C)c1.O=S(=O)([N-]S(=O)(=O)C(F)(F)F)C(F)(F)F + CCCCCCCCN1CCCC1=O
speed of sound (298.15 K, x2 = 0): 1227.9 m/s
speed of sound (303.15 K, x2 = 0): 1216.8 m/s
speed of sound (308.15 K, x2 = 0): 1205.8 m/s
speed of sound (313.15 K, x2 = 0): 1195 m/s
speed of sound (318.15 K, x2 = 0): 1184.2 m/s
speed of sound (323.15 K, x2 = 0): 1173.6 m/s

CCCCCCCCN1CCCC1=O + CCCC[n+]1ccn(C)c1.O=S(=O)([N-]S(=O)(=O)C(F)(F)F)C(F)(F)F
speed of sound (298.15 K, x1 = 0.1125): 1234.8 m/s
speed of sound (298.15 K, x1 = 0.2205): 1244.9 m/s
speed of sound (298.15 K, x1 = 0.3048): 1255.2 m/s
speed of sound (298.15 K, x1 = 0.3915): 1268.2 m/s
speed of sound (298.15 K, x1 = 0.5011): 1288.3 m/s
speed of sound (298.15 K, x1 = 0.5983): 1310.3 m/s
speed of sound (298.15 K, x1 = 0.7076): 1341 m/s
speed of sound (298.15 K, x1 = 0.7976): 1371.6 m/s
speed of sound (298.15 K, x1 = 0.8911): 1406.7 m/s
speed of sound (298.15 K, x1 = 1): 1450.2 m/s
speed of sound (303.15 K, x1 = 0.2205): 1233.4 m/s
speed of sound (303.15 K, x1 = 0.3048): 1243.4 m/s
speed of sound (303.15 K, x1 = 0.5011): 1275.5 m/s
speed of sound (303.15 K, x1 = 0.5983): 1297 m/s
speed of sound (303.15 K, x1 = 0.7976): 1356.6 m/s
speed of sound (303.15 K, x1 = 0.8911): 1390.5 m/s
speed of sound (303.15 K, x1 = 1): 1432.6 m/s
speed of sound (308.15 K, x1 = 0.1125): 1212.7 m/s
speed of sound (308.15 K, x1 = 0.2205): 1222.1 m/s
speed of sound (308.15 K, x1 = 0.3048): 1231.6 m/s
speed of sound (308.15 K, x1 = 0.5983): 1283.7 m/s
speed of sound (308.15 K, x1 = 0.7076): 1312.7 m/s
speed of sound (308.15 K, x1 = 0.7976): 1341.5 m/s
speed of sound (308.15 K, x1 = 0.8911): 1374.3 m/s
speed of sound (313.15 K, x1 = 0.1125): 1201.8 m/s
speed of sound (313.15 K, x1 = 0.3048): 1219.9 m/s
speed of sound (313.15 K, x1 = 0.3915): 1231.6 m/s
speed of sound (313.15 K, x1 = 0.5011): 1250 m/s
speed of sound (313.15 K, x1 = 0.5983): 1270.4 m/s
speed of sound (313.15 K, x1 = 0.7076): 1298.7 m/s
speed of sound (313.15 K, x1 = 0.7976): 1326.5 m/s
speed of sound (313.15 K, x1 = 0.8911): 1358.3 m/s
speed of sound (313.15 K, x1 = 1): 1398 m/s
speed of sound (318.15 K, x1 = 0.1125): 1190.9 m/s
speed of sound (318.15 K, x1 = 0.2205): 1199.6 m/s
speed of sound (318.15 K, x1 = 0.3048): 1208.3 m/s
speed of sound (318.15 K, x1 = 0.3915): 1219.6 m/s
speed of sound (318.15 K, x1 = 0.5011): 1237.5 m/s
speed of sound (318.15 K, x1 = 0.5983): 1257.3 m/s
speed of sound (318.15 K, x1 = 0.7076): 1284.9 m/s
speed of sound (318.15 K, x1 = 0.7976): 1311.7 m/s
speed of sound (318.15 K, x1 = 0.8911): 1342.4 m/s
speed of sound (318.15 K, x1 = 1): 1380.9 m/s
speed of sound (323.15 K, x1 = 0.1125): 1180.1 m/s
speed of sound (323.15 K, x1 = 0.2205): 1188.4 m/s
speed of sound (323.15 K, x1 = 0.3048): 1196.8 m/s
speed of sound (323.15 K, x1 = 0.3915): 1207.6 m/s
speed of sound (323.15 K, x1 = 0.5011): 1224.9 m/s
speed of sound (323.15 K, x1 = 0.5983): 1244.2 m/s
speed of sound (323.15 K, x1 = 0.7076): 1271.2 m/s
speed of sound (323.15 K, x1 = 0.7976): 1297.1 m/s
speed of sound (323.15 K, x1 = 1): 1364 m/s
